Experimental data: BindingDB's records for PubMed 25415869 (Genentech)

Columns and labels:
[1] = target: Serine/threonine-protein kinase PAK 1 (Homo sapiens) (UniProt Q13153); assay: Inhibition of PAK1 (unknown origin)
[2] = target: Serine/threonine-protein kinase PAK 1 (Homo sapiens) (UniProt Q13153); assay: Inhibition of PAK1 (unknown origin) in presence of ATP
[3] = target: Serine/threonine-protein kinase PAK1; assay: Inhibition of human recombinant PAK1 using KKRNRRLSVA as substrate assessed as inhibition constant preincubated with compound for 10 mins followed by substrate addition and measured after 60 mins by FRET assay
[4] = target: Serine/threonine-protein kinase PAK 1 (Homo sapiens) (UniProt Q13153); assay: Inhibition of PAK1 (unknown origin) in presence of ATP by Z-LYTE enzymatic kinase assay
[5] = target: Serine/threonine-protein kinase PAK 1 (Homo sapiens) (UniProt Q13153); assay: Inhibition of PAK1 (unknown origin) using 5-FAM-KPDRKKRYTVVGNPY-amide as substrate incubated for 120 mins by caliper off-chip mobility shift assay

Chain of Serine/threonine-protein kinase PAK 1 (Homo sapiens) (Q13153 whole entry, looked up): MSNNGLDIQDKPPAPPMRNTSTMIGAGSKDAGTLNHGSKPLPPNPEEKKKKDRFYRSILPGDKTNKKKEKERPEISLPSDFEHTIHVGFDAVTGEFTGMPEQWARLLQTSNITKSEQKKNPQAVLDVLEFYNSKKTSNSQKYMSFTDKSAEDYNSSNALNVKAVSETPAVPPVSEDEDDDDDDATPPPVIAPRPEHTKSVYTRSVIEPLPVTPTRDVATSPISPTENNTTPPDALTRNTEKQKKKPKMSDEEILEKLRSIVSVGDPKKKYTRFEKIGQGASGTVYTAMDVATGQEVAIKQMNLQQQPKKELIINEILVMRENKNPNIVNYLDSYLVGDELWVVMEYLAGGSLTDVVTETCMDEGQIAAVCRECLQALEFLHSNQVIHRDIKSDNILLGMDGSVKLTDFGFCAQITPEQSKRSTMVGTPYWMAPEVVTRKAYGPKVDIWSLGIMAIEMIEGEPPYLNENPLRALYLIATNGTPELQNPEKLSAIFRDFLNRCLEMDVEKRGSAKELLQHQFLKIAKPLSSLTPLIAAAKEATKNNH

Row | SMILES | IC50 [1] [nM] | other results
1 | CN(Cc1ccc2[nH]ccc2n1)c1nccc(Nc2cc([C@H]3C[C@@H]3F)[nH]n2)n1 | 8 | –
2 | CCn1c(=O)c(-c2ccc(-c3noc(C)n3)cc2Cl)cc2cnc(Nc3ccc(C4CCN(C)CC4)cc3)nc21 | 4 | –
3 | CCN1c2ccc(F)cc2N=C(N2CCN(C)CC2)c2cc(Cl)ccc21 | 340 | –
4 | CCN(Cc1ccc2[nH]cnc2c1Cl)c1nccc(Nc2cc(C(C)C)[nH]n2)n1 | 1.6 | –
5 | CN[C@@H]1C[C@H]2O[C@@](C)([C@@H]1OC)n1c3ccccc3c3c4c(c5c6cc(O)ccc6n2c5c31)C(=O)NC4 | 1 | –
6 | O=C1NC(=O)c2cc(-c3ccccn3)ccc21 | – | IC50 [2]: > 100000 nM
7 | Cc1nc2ccc(C#CC(C)(C)O)cc2n1-c1ncnc(N)n1 | – | Ki [3]: 15300 nM
8 | CCn1c(=O)c(-c2ccc(Cl)cc2Cl)cc2cnc(Nc3ccc(N4CCN(C)CC4)cc3)nc21 [FRAX414] | – | IC50 [4]: 20 nM
9 | O=C(c1ccccc1Cl)c1n[nH]c2ncc(-c3cnn(C4CCNCC4)c3)cc12 | – | IC50 [5]: 20 nM
10 | CN1CCN(c2ccc(Nc3ncc4ccc(=O)n(C5CCCC5)c4n3)cc2)CC1 [Pyrido[2,3-d]pyrimidin-7-one 1] | – | IC50 [4]: 483 nM
